This is an account of results in ChEMBL document CHEMBL1140830, “Ergoline derivatives as highly potent and selective antagonists at the somatostatin sst 1 receptor” (Bioorg Med Chem Lett, 2008).

For data set [1], the target named is Somatostatin receptor type 2 (Rattus norvegicus, UniProt P30680). The data set is described as follows: Displacement of [125I][Tyr3]octreotide from sst2 receptor in rat cortex. In general terms: Displacement assays read how much labelled ligand stays bound in the presence of the test substance.
Data set [2] deals with Somatostatin receptor type 1 (Rattus norvegicus, UniProt P28646). The data set is described as follows: Displacement of [125I]SRIF14 from sst1 receptor in rat cortex.
The target of data set [3] is T1, Somatostatin receptor type 1 (Homo sapiens, UniProt P30872). Kind of data set: Antagonist activity at human recombinant sst1 receptor assessed as inhibition of SRIF28-induced luciferase activity. It counts as functional.
The target of data set [4] is T1, Somatostatin receptor type 1. Kind of data set: Antagonist activity at human recombinant sst1 receptor in CCl39 cells assessed as SRIF14-induced inhibition of forskolin-stimulated adenylate cyclase activity. The format is functional, cell-based.
The target in data set [5] is Somatostatin receptor type 5 (Homo sapiens, UniProt P35346). Kind of data set: Binding affinity to human recombinant sst5 receptor.
The target of data set [6] is T1, Somatostatin receptor type 1. Kind of data set: Binding affinity to human recombinant sst1 receptor.
Data set [7] has as its target Somatostatin receptor type 2 (Homo sapiens, UniProt P30874). Kind of data set: Binding affinity to human recombinant sst2 receptor.
Data set [8] deals with Somatostatin receptor type 4 (Homo sapiens, UniProt P31391). Kind of data set: Binding affinity to human recombinant sst4 receptor.
The target in data set [9] is Somatostatin receptor type 3 (Homo sapiens, UniProt P32745). The data set is described as follows: Binding affinity to human recombinant sst3 receptor.
Data set [10] is described as follows: Oral bioavailability in rat. Particulars: in vivo. It counts as ADME, organism-based.
For data set [11], the target named is T2, 5-hydroxytryptamine receptor 1A (Homo sapiens, UniProt P08908).
T2 sequence (P08908 whole entry): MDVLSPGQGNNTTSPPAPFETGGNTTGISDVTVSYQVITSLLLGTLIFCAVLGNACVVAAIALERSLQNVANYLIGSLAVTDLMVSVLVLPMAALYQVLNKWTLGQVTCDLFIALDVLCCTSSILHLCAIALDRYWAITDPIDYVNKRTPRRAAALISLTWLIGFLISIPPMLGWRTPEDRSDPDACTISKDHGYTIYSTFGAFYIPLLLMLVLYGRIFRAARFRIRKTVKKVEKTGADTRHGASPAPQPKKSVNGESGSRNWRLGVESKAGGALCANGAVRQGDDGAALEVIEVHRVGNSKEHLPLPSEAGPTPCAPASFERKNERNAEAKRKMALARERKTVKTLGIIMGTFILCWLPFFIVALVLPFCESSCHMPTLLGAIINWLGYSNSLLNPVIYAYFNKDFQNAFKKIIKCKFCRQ
Kind of data set: Binding affinity to human 5HT1A receptor.

Data set [12] concerns the target T3, D(4) dopamine receptor (Homo sapiens, UniProt P21917).
T3 sequence (P21917 whole entry): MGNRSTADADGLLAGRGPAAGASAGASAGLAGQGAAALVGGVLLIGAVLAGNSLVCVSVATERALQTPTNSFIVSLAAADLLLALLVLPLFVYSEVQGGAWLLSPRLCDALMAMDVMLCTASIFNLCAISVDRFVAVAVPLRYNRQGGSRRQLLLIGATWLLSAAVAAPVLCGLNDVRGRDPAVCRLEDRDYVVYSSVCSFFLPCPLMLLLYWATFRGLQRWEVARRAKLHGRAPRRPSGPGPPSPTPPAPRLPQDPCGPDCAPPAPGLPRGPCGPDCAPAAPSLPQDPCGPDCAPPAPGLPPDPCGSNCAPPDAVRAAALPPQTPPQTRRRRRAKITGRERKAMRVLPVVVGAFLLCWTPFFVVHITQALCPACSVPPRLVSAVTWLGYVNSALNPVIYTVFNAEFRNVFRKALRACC
Kind of data set: Binding affinity to human dopamine D4 receptor.

Data set [13] can be described thus: Ratio of drug level in brain to plasma in rat at 30 umol/kg after 24 hrs. It counts as ADME. The following applies: brain and plasma.
Data set [14] has as its target D(2) dopamine receptor (Homo sapiens, UniProt P14416). The data set is described as follows: Binding affinity to human dopamine D2 receptor.
The nature of data set [15]: Ratio of drug level in brain to plasma in rat at 30 umol/kg after 10 mins. The following applies: brain and plasma. It counts as ADME.

T1 sequence (P30872 whole entry): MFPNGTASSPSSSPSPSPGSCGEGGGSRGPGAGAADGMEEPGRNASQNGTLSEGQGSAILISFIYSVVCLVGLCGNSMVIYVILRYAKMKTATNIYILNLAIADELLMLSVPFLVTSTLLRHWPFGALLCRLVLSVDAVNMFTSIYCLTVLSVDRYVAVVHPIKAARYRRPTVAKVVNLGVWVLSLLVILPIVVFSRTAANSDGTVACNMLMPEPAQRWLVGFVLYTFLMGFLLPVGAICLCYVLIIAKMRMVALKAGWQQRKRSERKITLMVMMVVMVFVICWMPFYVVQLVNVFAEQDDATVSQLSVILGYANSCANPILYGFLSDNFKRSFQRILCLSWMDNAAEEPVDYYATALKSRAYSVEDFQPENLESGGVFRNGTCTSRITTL
Sequence of Somatostatin receptor type 5 (P35346 whole entry): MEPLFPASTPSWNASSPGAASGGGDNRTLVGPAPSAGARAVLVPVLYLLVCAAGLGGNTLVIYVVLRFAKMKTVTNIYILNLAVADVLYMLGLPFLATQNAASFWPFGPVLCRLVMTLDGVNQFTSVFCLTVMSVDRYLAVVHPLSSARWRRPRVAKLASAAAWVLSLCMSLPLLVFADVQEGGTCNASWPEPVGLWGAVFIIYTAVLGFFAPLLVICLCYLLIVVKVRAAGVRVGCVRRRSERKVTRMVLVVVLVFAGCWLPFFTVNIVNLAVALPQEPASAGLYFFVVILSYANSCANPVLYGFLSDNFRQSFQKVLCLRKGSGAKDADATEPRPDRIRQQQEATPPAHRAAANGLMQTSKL
Sequence of Somatostatin receptor type 2 (Rattus norvegicus, UniProt P30680) (P30680 whole entry): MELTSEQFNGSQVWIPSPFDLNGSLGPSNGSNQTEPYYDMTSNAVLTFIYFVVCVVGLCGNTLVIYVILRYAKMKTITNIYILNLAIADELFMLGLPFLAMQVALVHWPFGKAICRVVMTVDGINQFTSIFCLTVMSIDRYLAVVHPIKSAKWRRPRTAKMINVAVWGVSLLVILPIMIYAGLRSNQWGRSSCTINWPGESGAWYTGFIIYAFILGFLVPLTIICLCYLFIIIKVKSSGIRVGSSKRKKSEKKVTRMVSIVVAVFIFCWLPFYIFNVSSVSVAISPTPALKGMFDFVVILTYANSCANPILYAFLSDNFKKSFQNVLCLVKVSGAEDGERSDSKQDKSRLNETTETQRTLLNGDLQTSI
Sequence of Somatostatin receptor type 3 (P32745 whole entry): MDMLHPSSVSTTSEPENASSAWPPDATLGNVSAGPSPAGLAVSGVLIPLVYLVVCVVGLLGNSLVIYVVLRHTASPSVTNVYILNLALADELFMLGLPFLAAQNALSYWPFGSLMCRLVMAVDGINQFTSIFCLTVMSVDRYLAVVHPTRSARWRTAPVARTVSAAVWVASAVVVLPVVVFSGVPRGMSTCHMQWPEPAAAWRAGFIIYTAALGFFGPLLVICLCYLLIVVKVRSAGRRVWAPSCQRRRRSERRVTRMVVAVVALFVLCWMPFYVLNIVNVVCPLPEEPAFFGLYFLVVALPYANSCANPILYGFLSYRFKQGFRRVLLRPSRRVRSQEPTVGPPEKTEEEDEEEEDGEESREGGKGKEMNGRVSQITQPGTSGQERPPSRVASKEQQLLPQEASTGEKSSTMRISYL
Sequence of Somatostatin receptor type 2 (Homo sapiens, UniProt P30874) (P30874 whole entry): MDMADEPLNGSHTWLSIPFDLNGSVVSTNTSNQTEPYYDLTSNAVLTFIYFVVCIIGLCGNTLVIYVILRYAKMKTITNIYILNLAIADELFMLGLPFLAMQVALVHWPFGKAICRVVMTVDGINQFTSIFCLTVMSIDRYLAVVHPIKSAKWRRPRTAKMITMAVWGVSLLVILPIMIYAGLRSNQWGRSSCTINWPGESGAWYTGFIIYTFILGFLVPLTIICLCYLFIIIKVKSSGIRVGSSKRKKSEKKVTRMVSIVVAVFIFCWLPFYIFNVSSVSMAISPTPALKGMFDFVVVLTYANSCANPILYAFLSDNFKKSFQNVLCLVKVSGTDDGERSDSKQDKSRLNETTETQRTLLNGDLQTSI
Sequence of Somatostatin receptor type 4 (P31391 whole entry): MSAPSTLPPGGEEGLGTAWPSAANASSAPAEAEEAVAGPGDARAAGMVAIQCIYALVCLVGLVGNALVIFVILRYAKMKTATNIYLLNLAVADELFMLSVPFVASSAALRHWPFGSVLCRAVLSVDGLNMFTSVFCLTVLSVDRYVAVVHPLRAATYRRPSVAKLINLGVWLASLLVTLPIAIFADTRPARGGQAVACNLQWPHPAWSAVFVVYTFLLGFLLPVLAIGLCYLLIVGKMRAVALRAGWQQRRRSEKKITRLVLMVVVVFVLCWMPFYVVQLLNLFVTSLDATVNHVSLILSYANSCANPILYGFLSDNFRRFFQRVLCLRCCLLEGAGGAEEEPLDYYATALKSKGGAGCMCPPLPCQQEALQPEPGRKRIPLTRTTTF
Sequence of Somatostatin receptor type 1 (Rattus norvegicus, UniProt P28646) (P28646 whole entry): as the sequence (P30872 whole entry) above, with S8P, S11T, P16S, S20G, G25V, G26C, A32S, A45S, T385A, T389S counted along it
Sequence of D(2) dopamine receptor (P14416 whole entry): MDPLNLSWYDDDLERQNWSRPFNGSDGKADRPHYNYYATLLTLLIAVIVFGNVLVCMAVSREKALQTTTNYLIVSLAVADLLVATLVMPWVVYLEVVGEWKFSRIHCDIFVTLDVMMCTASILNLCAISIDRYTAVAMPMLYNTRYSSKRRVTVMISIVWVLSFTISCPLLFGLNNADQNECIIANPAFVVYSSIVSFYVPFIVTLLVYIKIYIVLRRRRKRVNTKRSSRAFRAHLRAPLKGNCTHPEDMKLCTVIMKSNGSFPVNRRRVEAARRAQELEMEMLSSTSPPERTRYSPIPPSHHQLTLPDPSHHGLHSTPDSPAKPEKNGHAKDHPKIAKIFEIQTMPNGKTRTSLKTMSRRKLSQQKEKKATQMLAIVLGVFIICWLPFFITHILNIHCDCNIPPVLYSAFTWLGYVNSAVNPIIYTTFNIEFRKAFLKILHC

Regarding `CN1C[C@H](C(=O)N2CCN(c3ccccn3)CC2)C[C@@H]2c3cccc4[nH]c(S(C)(=O)=O)c(c34)C[C@H]21`, the Kd – broadly, the free concentration of one partner at which half of the binding sites on the other are occupied at equilibrium, for simple one-to-one binding – in data set [1] is 7760 nM; in data set [2] it was 309 nM.
The matching figures for `CN1C[C@H](C(=O)N2CCN(c3ccccn3)CC2)C[C@@H]2c3cccc4[nH]c(Br)c(c34)C[C@H]21`: 16600 nM and 4.47 nM.
The matching figures for `CN1C[C@H](C(=O)N2CCN(c3ccccn3)CC2)C[C@@H]2c3cccc4[nH]c(I)c(c34)C[C@H]21`: 5620 nM and 16.6 nM.
The matching figures for `CN1C[C@H](C(=O)N2CCN(c3ccc(Cl)cc3)CC2)C[C@@H]2c3cccc4[nH]c(Br)c(c34)C[C@H]21`: 2000 nM and 5.5 nM.
`CN1C[C@H](C(=O)N2CCN(c3ccc(Cl)cc3)CC2)C[C@@H]2c3cccc4[nH]c(Cl)c(c34)C[C@H]21`: the Kd in [1] is 5890 nM; in data set [2], 4.17 nM.
As to `CN1C[C@H](C(=O)N2CCN(c3ccccn3)CC2)C[C@@H]2c3cccc4[nH]c(O)c(c34)C[C@H]21`, the Kd in data set [1] was 8510 nM; in data set [2], 240 nM.
The matching figures for `CN1C[C@H](C(=O)N2CCN(c3ccc4nsnc4n3)CC2)C[C@@H]2c3cccc4[nH]cc(c34)C[C@H]21`: 3020 nM and 1.02 nM.
For `CN1C[C@H](C(=O)N2CCN(c3ccc([N+](=O)[O-])cc3)CC2)C[C@@H]2c3cccc4[nH]c(Br)c(c34)C[C@H]21` the same measures were 7240 nM and 1.35 nM.
The matching figures for `CN1C[C@H](C(=O)N2CCN(c3ccc4nsnc4n3)CC2)C[C@@H]2c3cccc4[nH]c(Br)c(c34)C[C@H]21`: 4570 nM and 0.372 nM.
`CN1C[C@H](C(=O)N2CCN(c3ccc([N+](=O)[O-])cc3)CC2)C[C@@H]2c3cccc4[nH]cc(c34)C[C@H]21`: the Kd in [1] is 3160 nM; in data set [2] it was 3.89 nM.
On to `CN1C[C@H](C(=O)N2CCN(c3ccc4nsnc4n3)CC2)C[C@@H]2c3cccc4[nH]c(Cl)c(c34)C[C@H]21`, for which the figures for the Kd in [1] and in data set [2] were 3890 nM and 0.24 nM, respectively.
Consider `COCCN1C[C@H](C(=O)N2CCN(c3ccccn3)CC2)C[C@@H]2c3cccc4[nH]c(Br)c(c34)C[C@H]21`, for which, in [2], the Kd was 1480 nM.
In the case of `CCN1C[C@H](C(=O)N2CCN(c3ccc(F)c(F)c3)CC2)C[C@@H]2c3cccc4[nH]c(Br)c(c34)C[C@H]21`, the Kd in data set [1] was 13200 nM; in data set [2], 0.977 nM.
In data set [2], `CCCCN1C[C@H](C(=O)N2CCN(c3ccccn3)CC2)C[C@@H]2c3cccc4[nH]c(Br)c(c34)C[C@H]21` had a Kd of 1150 nM.
Consider `CN1C[C@H](C(=O)N2CCN(c3ccccn3)CC2)C[C@@H]2c3cccc4[nH]c([S+](C)[O-])c(c34)C[C@H]21` (stereo partly specified), for which the Kd is 17800 nM in data set [1] and 2630 nM in data set [2].
The compound `O=C([C@@H]1C[C@@H]2c3cccc4[nH]c(Br)c(c34)C[C@H]2N(CCCO)C1)N1CCN(c2ccccn2)CC1` had a dissociation constant Kd in [2] of 2340 nM.
In the case of `CN1C[C@H](C(=O)N2CCN(c3ccccn3)CC2)C[C@@H]2c3cccc4[nH]cc(c34)C[C@H]21`, the Kd in data set [1] was 17800 nM; in [2] it was 14.1 nM.
Turning to `CN1C[C@H](C(=O)N2CCN(c3cccc(=O)n3C)CC2)C[C@@H]2c3cccc4[nH]c(Br)c(c34)C[C@H]21` [ERGOLINE], the pKb (commonly −log10 of the Kb, conventionally taken in molar units) in [3] is 8.85; in data set [4] it was 7.85.
Compound `CC(C)CCN1C[C@H](C(=O)N2CCN(c3ccccn3)CC2)C[C@@H]2c3cccc4[nH]c(Br)c(c34)C[C@H]21` had a Kd in [2] of 1740 nM.
As to `CN1C[C@H](C(=O)N2CCN(c3ccc(F)c(F)c3)CC2)C[C@@H]2c3cccc4[nH]c(Br)c(c34)C[C@H]21`, the Kd was 8130 nM in data set [1] and 0.49 nM in [2].
On to `O=C([C@H]1CN[C@@H]2Cc3c(Br)[nH]c4cccc(c34)[C@H]2C1)N1CCN(c2ccccn2)CC1`, for which the Kd in data set [1] is 7940 nM; in [2] it was 170 nM.
The matching figures for `CN1C[C@H](C(=O)N2CCN(c3ccc([N+](=O)[O-])cc3)CC2)C[C@@H]2c3cccc4[nH]c(Cl)c(c34)C[C@H]21`: 8910 nM and 1.26 nM.
For `CN1C[C@H](C(=O)N2CCN(c3ccc(F)c(F)c3)CC2)C[C@@H]2c3cccc4[nH]c(Cl)c(c34)C[C@H]21`, the Kd in [1] was 12900 nM; in data set [2], 0.603 nM.
Take `CN1C[C@@H](C(=O)N2CCN(c3ccc4nonc4c3)CC2)C[C@H]2c3cccc4[nH]c(Br)c(c34)C[C@@H]21`: the Kd in [1] was 12600 nM; in data set [5], 23400 nM; in data set [6] it was 501 nM; in data set [7], 3890 nM; in data set [8], 5620 nM; in [2], 182 nM. In [9], the Kd was 7240 nM.
On to `CN1C[C@H](C(=O)N2CCN(c3ccccn3)CC2)C[C@@H]2c3cccc4[nH]c(Cl)c(c34)C[C@H]21`, for which the Kd in [2] was 12.9 nM.
In the case of `CN1C[C@H](C(=O)N2CCN(c3ccc(Cl)cc3)CC2)C[C@@H]2c3cccc4[nH]cc(c34)C[C@H]21`, the values for the Kd in data set [1] and in data set [2] were 2190 nM and 19.5 nM, respectively.
`CN1C[C@H](C(=O)N2CCN(c3cccc(=O)n3C)CC2)C[C@@H]2c3cccc4[nH]cc(c34)C[C@H]21`: the Kd in data set [1] is 7760 nM; in data set [2] it was 0.759 nM.
The matching figures for `CN1C[C@H](C(=O)N2CCN(c3cccc(=O)n3C)CC2)C[C@@H]2c3cccc4[nH]c(Cl)c(c34)C[C@H]21`: 49000 nM and 0.389 nM.
The matching figures for `CCn1c(N2CCN(C(=O)[C@@H]3C[C@@H]4c5cccc6[nH]c(Cl)c(c56)C[C@H]4N(C)C3)CC2)cccc1=O`: 12000 nM and 0.38 nM.
Turning to `CN1C[C@@H](C(=O)N2CCN(c3cccc(=O)n3C)CC2)C[C@H]2c3cccc4[nH]c(Br)c(c34)C[C@@H]21`, the Kd in data set [1] is 20400 nM; in data set [5], 69200 nM; in [6], 1950 nM; in [7], 9330 nM; in data set [8], 8130 nM; in data set [2] it was 417 nM. The Kd in [9] was 5370 nM.
For `CSc1[nH]c2cccc3c2c1C[C@@H]1[C@@H]3C[C@@H](C(=O)N2CCN(c3ccccn3)CC2)CN1C`, the Kd in data set [1] is 8510 nM; in [2], 2.4 nM.
In the case of `CN1C[C@H](C(=O)N2CCN(c3ccc4nonc4c3)CC2)C[C@@H]2c3cccc4[nH]c(Br)c(c34)C[C@H]21`, the Kd in [1] was 6460 nM; in [11] it was 28.2 nM; in [5] it was 6460 nM; in [12] it was 77.6 nM; in data set [6], 1.23 nM; in data set [7], 6760 nM. Also, the dissociation constant (Kd) in data set [8] is 3630 nM; in data set [14], 126 nM; in [2], 0.372 nM; in data set [9] it was 2340 nM. Moreover, in data set [10], the bioavailability (usually dose-corrected exposure relative to a reference, in per cent) was determined as 48%. The pKb is 9.42 in data set [3] and 7.62 in data set [4]. Besides, in data set [13], the Kp (as a rule, the ratio of the level in a tissue or fluid to that in plasma or blood) at 24 h turned out to be 1.7. Also, the Kp at 10 min in data set [15] was determined as 0.7.
On to `CN1C[C@H](C(=O)N2CCN(c3ccc4nonc4c3)CC2)C[C@@H]2c3cccc4[nH]c(Cl)c(c34)C[C@H]21`, for which the Kd in [1] was 5130 nM; in data set [2], 0.389 nM.
The matching figures for `CCn1c(N2CCN(C(=O)[C@@H]3C[C@@H]4c5cccc6[nH]c(Br)c(c56)C[C@H]4N(C)C3)CC2)cccc1=O`: 26300 nM and 0.282 nM.
